Laboratory results: patent EP0773292A1, “Immortalised embryonic hippocampal cells and their use” (BAYER AG, priority 1995, dated 1997)

Experiments:
Assay type in all cases: cell-based, murine
[1] = test system: v-myc-expressing lines and clones; test: Induction of differentiation; conditions: 1mM dbcAMP
Experimental: For experiments in the presence of growth factors or other differentiation inducing agents, the primary cell cultures or the immortalised cell lines were cultured in the presence of one or a combination of the following: β-FGF, 1ng/ml, (Collaborative Research), EGF; 5 ng/ml or 10 ng/ml, (Collaborative Research), NGF (10 ng/ml, Collaborative Reasearch), dibutyryl cyclic adenosine monophosphate (dbcAMP, 1mM, Sigma, Heidelberg), retinoic acid (5 µM; Sigma), IL-7 (50 U/ml), TGFα (5ng/ml).
To induce differentiation in vitro several combinations of the following factors were used: retinoic acid (RA, 10 µM), NGF, β-FGF, EGF, IL-7, TGFα, dbcAMP (1mM). In addition the effect of co-culture with cortical glial cells originating from postnatal day 0 to 1 and granule neurons originating from postnatal day 6 mice was investigated.

HNMMCV13.1.E [2] = test: Electrophysiology: whole-cell patch-clamp, ligand-activated currents; conditions: 13.1.E; membrane potential clamped to -70mV
Experimental: (§1) Electrophysiological setup: Membrane currents were measured with the patch-clamp technique in the whole-cell recording configuration (Hamill et al. 1981, Pfluegers Arch. 391:85-100). Current signals were amplified with conventional electronics (EPC-9 amplifier, HEKA Elektronik GmbH, Lambrecht, Germany), filtered at 10kHz, and sampled at 5 kHz by an interface connected to an IBM AT-compatible computer system, which also served as a stimulus generator.
(§2) Solutions and electrodes: The standard bathing solution contained (in mM): Nacl 150, KCL 5, MgCl2 1.8, HEPES 5, and glucose 10. In some experiments an equimolar amount of NaCl was replaced by 5mM BaCl2. Recording pipettes had resistances about 5MΩ (Hilgenberg, Malsfeld, Germany). The pipettes contained (in mM): KCL 140, CaCl2 0.5, EGTA 5, MgCl2 2, and HEPES 10. The pH was adjusted to 7.4. In some experiments the pipette solution was designed to minimize the contribution of voltage-activated currents. In this case, investigating the ligand-activated currents, the pipette solution contained (in mM): CsCl 140, EGTA 10, and HEPES 10.
(§3) Ligands were dissolved in the extracellular saline solution and applied via an U-tube application system. To record ligand-induced currents, the membrane potential was clamped to -70mV. For measurements of voltage-activated currents, cells were held at -70mV and every second the membrane was stepped through a 50 msec. de- or hyperpolarising test pulse to a potential between -170 and +20 mV.

HC e/n XVB cells = test: as above; conditions: for ligand-activated currents: membrane potential clamped to -70mV
Experimental: as §1, §2, §3

HNMMCV14.1.A [3] = test: as above
Experimental: as §1, §2, §3

HC e/n XV.B cells = test: Ca2+-imaging (Fura-2), rise in intracellular calcium
Experimental: (§4) Fluorescent Probe: Dynamic changes of intracellular calcium concentration were measured using the Fura-2 fluorescent probe (Roe et al. 1990, Cell Calcium 11:63-73). This fluorescent dye was chosen because of its selectivity, high quantum yield and extinction co-efficient. Fura-2 permeates the living cell as a acetoxymethylester and becomes trapped within the cell after hydrolysis by intracellular esterases. The calcium-sensitive free acid of Fura-2 is able to bind to calcium ions inside the cell. Fura-2 has an excitation maximum at 380 nm and the Fura2/calcium complex peaks at 340 nm. A change in intracellular calcium concentration was calculated by recording fluorescent video images at wavelengths of 340nm and 380nm excitation and 510nm emission and by dividing the grey values of the digitized video images of 380nm from 340nm.
(§5) Loading cells with Fura-2: A stock solution with 2mM Fura-2-acetoxymethylester in dimethylsulfoxide (DMSO) was diluted to 5-10 µM with serum free Minimal Essential Medium (MEM, Gibco) containing 1.5% bovine serum albumin and 5 mM calcium chloride. The cells were incubated in a Falcon 96 well plate for 45-60 minutes at 37°C. Subsequently the cells were washed twice in N-(2-Hydroxyethyl)piperazine-N'-(2-ethanesulfonic acid) (HEPES, 5mM) buffered Tyrode solution (HEPES buffered salt solution containing 130 mM NaCl, 5 mM KCl, 2 mM CaCl2, 1 mM MgCl2, 5mM NaHCO3, 11 mM Glucose).
(§6) Imaging procedure: 100 µl of Tyrode buffer was added to the plate wells and the cells were sequencially exposed to light at 340 nm and 380 nm under a fluorescent microscope (Nikon Diaphot). The exposition time was 100 ms. A series of video images at 3 second intervals was acquired and stored as digitised pictures in the image boards of an image analysis computer (Leica, Quantimet 570). After the acquisition of 8 images the test substances were applied. The grey levels of the cells, which correspond to the fluorescence intensity, were measured in the recorded video images. The ratio was determined by dividing the measured grey levels of the "380 nm images" by the grey levels of the "340 nm images" either from averaged images or from individual cells. For averaged results, the grey levels were measured over the whole images.
(§7) The cells were loaded with Fura 2/AM between day 3 and 7 in culture. A number of agonists were tested for their ability to activate specific receptors on the cell surface which leads to a rise in intracellular calcium. The rise in calcium concentration in the cytoplasm can occur after activation of specific calcium channels in the cell membrane, after activation of neurotransmitter receptors directly coupled to ion channels that are permeable to calcium ions (i.e. NMDA or AMPA type glutamate receptors), or by activation of receptors, which propagate the signal through the activation of specific G-proteins, which regulate the activity of different enzymes in the interior of the cell (Connor, Cell Calcium 14 (1993), 185-200; Crouch and Hendry, Medical Res. Rev. 13 (1993), 105-123). The activation of phospholipase C generates the second messengers diacylglycerol and inositoltriphosphate from phospholipids in the cell membrane. The binding of inositoltriphosphate to receptors localised on internal vesicles which store calcium ions leads to a transient rise in the concentration of calcium ions in the cytoplasm (Berridge, M.J. 1993, Nature 361: 315-325).

HNMMCV13.1.E [4] = test: as above
Experimental: as §4, §5, §6, §7

HNMMCV14.1.A [5] = test: as above
Experimental: as §4, §5, §6, §7

HNMMCV13.1.F = test: as above
Experimental: as §4, §5, §6, §7

HNMMCV11.2.0 = test: as above
Experimental: as §4, §5, §6, §7

## CCCC(=O)Nc1ncnc2c1ncn2[C@@H]1O[C@@H]2COP(=O)(O)O[C@H]2[C@H]1OC(=O)CCC [dbcAMP, dibutyryl cyclic adenosine monophosphate]
[1]; cell line HNMMCV11.2.
  expression of MAP-2: induction of the expression of MAP-2
[1]; v-myc-expressing lines and clones
  differentiation of the cells: induced a partial differentiation

## N[C@@H](CCC(=O)O)C(=O)O [Glutamate, L-glutamate]
HNMMCV13.1.E [2]
  ligand-activated currents: + (+: 10-30% positive cells)
HC e/n XVB cells; XV. B (with EGF, undifferentiated)
  ligand-activated currents: -
HC e/n XVB cells; XV. B/ - EGF (differentiated)
  ligand-activated currents: ++ (++: 30-70% positive cells)

## C=C(C)[C@H]1CN[C@H](C(=O)O)[C@H]1CC(=O)O [Kainate, kainic acid]
HNMMCV14.1.A [3]
  ligand-activated currents: + / -
HC e/n XVB cells
  I/V curve of the ligand response: linear
  ligand induced inward currents: evoked responses with different peak amplitudes
  reversal potential of the ligand-activated current: 0 mV
HC e/n XV.B cells
  transient rise in intracellular calcium concentration: reproducible calcium signal
HNMMCV13.1.E [4]
  transient calcium currents after the application of agonists and antagonists: -
  transient rise in intracellular calcium concentration: did not result in a transient rise in intracellular calcium concentrations
HNMMCV14.1.A [5]
  transient calcium currents after the application of agonists and antagonists: -
  transient rise in intracellular calcium concentration: did not result in a transient rise in intracellular calcium concentrations
HNMMCV13.1.F
  transient calcium currents after the application of agonists and antagonists: -
  transient rise in intracellular calcium concentration: did not result in a transient rise in intracellular calcium concentrations
HNMMCV11.2.0
  transient calcium currents after the application of agonists and antagonists: -
  transient rise in intracellular calcium concentration: did not result in a transient rise in intracellular calcium concentrations
